Laboratory results from patent publication US11141383B1, “Drug loaded flexible chitoplexes nanoparticles” (King Abdulaziz University, priority 2020, dated 2021).
Like-named read-outs stand apart in the source and are kept apart here.

How the values were obtained:
[1] = In vitro release study (dialysis bag, phosphate buffer pH 7.4); format: physicochemical
Method: The in vitro release of RSV from the prepared liposomal NPs, chitoplexes nano-formulation and pure drug suspension was studied. A quantity of each preparation containing 9 mg of drug was placed in a firmly sealed dialysis bag (Sigma-Aldrich Inc.) of a molecular weight cut-off 14 kDa. The dialysis bag was immersed in a glass bottle containing 400 mL phosphate buffer of pH 7.4. The bottles were kept in a shaking water bath (Model 1031; GFL Corporation, Burgwedel, Germany) at 37° C. and 100 rpm. The parameters of the in vitro release study were selected to achieve a sink condition. Aliquots of 2 mL were taken from the receptor compartment at predetermined time intervals with immediate replacement. The quantity of RSV in the withdrawn samples was determined spectrophotometrically at 242 nm. The experiment was done in triplicate for each formulation and mean values were calculated.

[2] = cited from earlier work
[3] = system: human colorectal (HCT-116) cells; test: Cell viability and cytotoxicity assay (MTT); format: cell-based; conditions: HCT-116, MTT
Method: This test aimed to determine the effect of the prepared RSV lipid-based NPs formulations on intestinal cell viability and cytotoxicity. The potential effects of both formulations on human colorectal (HCT-116) cells were assessed by 3-(4,5-dimethylthiazol-2-yl)2,5-diphenyl tetrazolium bromide (MTT) assay. Cells were seeded on 96-well plates (1×10^4 cells/well) and incubated at 37° C. under a humidified atmosphere of 5% CO2 for 24 h. […] Each formulation was compared with a drug-free carrier as a negative control. After incubation, SFM in the control and test wells were replaced by 100 μL/well of MTT solution (0.5 mg/ml) in PBS and incubated at 37° C. for another 3 h. The MTT solution was removed and the purple formazan crystals formed at the bottom of the wells were dissolved using 100 μL DMSO/well with shaking for 2 h at room temperature. The intensity of the color obtained was measured at 549 nm using a microplate reader (ELX 800; Bio-Tek Instruments, Winooski, Vt., USA). Data, expressed as the percentage of viable cells, were compared to the survival of a control group. Values of the half maximal inhibitory concentration (IC50) were also estimated. Cells treated with DMSO only were defined as 100%
To examine the biocompatibility and cytotoxic effects of plain and drug loaded liposomal NPs or chitoplexes nano-formulation, HCT-116 cells were treated with different concentrations of these samples for 3 days and the MTT assay was performed to investigate the effect of these formulation on the viability of living cells. This test depends on the production of a colored formazan by the action of the viable cells' mitochondrial enzymes on MTT. Cells were exposed to increasing RSV concentrations of drug loaded liposomal NPs and chitoplexes nano-formulation standardized at certain RSV concentrations. Cells were also incubated with blank liposomal NPs and chitoplexes nano-formulation to exclude the effect of RSV. […]

[4] = cited from earlier work; remark: listed apart in the source

CC(C)c1nc(N(C)S(C)(=O)=O)nc(-c2ccc(F)cc2)c1/C=C/[C@@H](O)C[C@@H](O)CC(=O)O [RSV pure, Rosuvastatin]
drug release after 24 h ([1]; dialysis bag 14 kDa, phosphate buffer pH 7.4, 37° C., 100 rpm, 24 h): 37.28±2.86% | drug release pattern ([1]; dialysis bag, phosphate buffer pH 7.4, FIG. 4): overall low drug release pattern | elimination half-life ([2]; in vivo): ~19 h | excreted in feces ([2]; in vivo): 90% | time to maximum plasma concentration ([2]; in vivo): 3 to 5 h | bound to plasma protein ([2]; mainly to serum albumin): 88% | oral bioavailability ([2]; oral): ~20% | orally administered dose absorbed ([2]; oral): about 25% | IC50 ([3]; after 24 h, read-out: IC50 (μM) after 24 h): 248 µM | IC50 ([3]; after 48 h, read-out: IC50 (μM) after 48 h): 237 µM | IC50 ([3]; after 72 h, read-out: IC50 (μM) after 72 h): 168 µM | water solubility [4]: low
